Where two headings read alike, the source gives them in different places.
Columns and labels:
[1] = test system: interferon alpha signalling (TYK2 and JAK1), STAT3 phosphorylation; test: Human whole blood INFα induced STAT3 phosphorylation assay; type: cell-based; details: compound 60 minutes at 37° C., IFNα 5000 U/ml for 15 minutes, pSTAT3 in lymphocyte population by flow cytometry, read-out: HWB IFN alpha IC50;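 also: flow cytometry with anti-pSTAT3 staining, signal as percent-positive × mean fluorescence, baseline from unstimulated wells, 11-point dilution series, IC50 as inhibition of pSTAT3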
[2] = molecular target: recombinant human kinase domain of JAK3 (Homo sapiens (Human), UniProt P52333); test: JAK Caliper enzyme assay at 1 mM ATP (JAK3); type: biochemical; details: 1 mM ATP; read-out: IC50 (nM) JAK3;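 also: microfluidic mobility-shift readout of synthetic peptide phosphorylation, percent product converted from peak heights, normalized to DMSO-only wells as uninhibited baseline, room temperature incubation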
[3] = molecular target: recombinant human kinase domain of TYK2 (Homo sapiens (Human), UniProt P29597); test: JAK Caliper enzyme assay at 1 mM ATP (TYK2); type: biochemical; details: 1 mM ATP; read-out: IC50 (nM) TYK2;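 also: microfluidic mobility-shift readout of synthetic peptide phosphorylation by TYK2, tuned to 20–30% conversion at room temperature, reaction stopped with EDTA, DMSO-only wells as uninhibited baseline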
[4] = molecular target: recombinant human kinase domain of JAK2 (Homo sapiens (Human), UniProt O60674); test: JAK Caliper enzyme assay at 1 mM ATP (JAK2); type: biochemical;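 also: microfluidic mobility-shift read-out of fluorescent synthetic peptide phosphorylation, percent product converted from peak heights, room temperature, DMSO-only wells as uninhibited baseline, inhibition curve fit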
[5] = molecular target: recombinant human kinase domain of JAK1 (Homo sapiens (Human), UniProt P23458); test: JAK Caliper enzyme assay at 1 mM ATP (JAK1); type: biochemical;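 also: microfluidic mobility-shift readout of synthetic fluorescent peptide phosphorylation, percent product converted from peak height, inhibition relative to DMSO-only wells as uninhibited baseline, room temperature incubation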
[6] = 1 mM ATP, read-out: IC50 (nM) JAK1

recombinant human kinase domain of JAK3, sequence (P52333 822-1111): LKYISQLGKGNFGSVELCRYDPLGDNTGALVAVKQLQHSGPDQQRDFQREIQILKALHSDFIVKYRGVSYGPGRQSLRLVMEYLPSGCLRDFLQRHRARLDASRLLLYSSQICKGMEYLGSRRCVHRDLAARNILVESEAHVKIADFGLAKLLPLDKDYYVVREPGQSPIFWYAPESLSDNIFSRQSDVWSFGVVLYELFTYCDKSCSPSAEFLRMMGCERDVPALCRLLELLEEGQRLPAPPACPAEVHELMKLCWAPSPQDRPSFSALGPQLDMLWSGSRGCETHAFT
recombinant human kinase domain of JAK2, sequence (O60674 849-1124): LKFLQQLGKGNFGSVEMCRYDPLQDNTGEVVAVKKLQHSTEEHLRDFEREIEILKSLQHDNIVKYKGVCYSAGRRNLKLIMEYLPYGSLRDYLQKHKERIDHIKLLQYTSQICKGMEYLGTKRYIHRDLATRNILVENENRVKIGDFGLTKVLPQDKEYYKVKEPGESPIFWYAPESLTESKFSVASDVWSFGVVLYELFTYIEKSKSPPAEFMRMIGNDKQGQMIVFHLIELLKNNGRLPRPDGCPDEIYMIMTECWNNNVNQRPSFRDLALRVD
recombinant human kinase domain of TYK2, sequence (P29597 897-1176): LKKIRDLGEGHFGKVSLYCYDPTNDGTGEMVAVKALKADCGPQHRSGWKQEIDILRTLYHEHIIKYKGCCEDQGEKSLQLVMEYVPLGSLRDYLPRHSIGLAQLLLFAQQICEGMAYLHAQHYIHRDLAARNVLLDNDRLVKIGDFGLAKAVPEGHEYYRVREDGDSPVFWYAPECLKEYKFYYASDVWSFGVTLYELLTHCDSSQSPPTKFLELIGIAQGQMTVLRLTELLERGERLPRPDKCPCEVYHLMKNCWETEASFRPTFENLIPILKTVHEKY
recombinant human kinase domain of JAK1, sequence (P23458 875-1153): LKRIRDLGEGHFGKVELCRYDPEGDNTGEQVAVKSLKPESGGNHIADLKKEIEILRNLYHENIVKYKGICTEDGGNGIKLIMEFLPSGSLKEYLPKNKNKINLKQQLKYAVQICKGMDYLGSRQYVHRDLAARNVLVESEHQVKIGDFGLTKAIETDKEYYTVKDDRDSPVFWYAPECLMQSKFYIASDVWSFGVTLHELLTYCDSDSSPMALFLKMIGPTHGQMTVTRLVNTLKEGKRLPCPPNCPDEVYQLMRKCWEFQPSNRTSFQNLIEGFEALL

| SMILES | IC50 [1] [nM] | IC50 [2] [nM] | IC50 [3] [nM] | IC50 [4] [nM] | IC50 [5, 6] [nM] | IC50 [5] [nM] |
| --- | --- | --- | --- | --- | --- | --- |
| CNC(=O)c1ncc(Nc2nccc(N3C[C@H]4CC[C@@H](C3)N4C(=O)C3CC3)n2)cc1C [Example 6, 5-({4-[(1R,5S)-8-(cyclopropylcarbonyl)-3,8-diazabicyclo[3.2.1]oct-3-yl]pyrimidin-2-yl}amino)-N,3-dimethylpyridine-2-carboxamide] | 232 | > 10000 | 36 | 754 | 337 | – |
| CNC(=O)c1ncc(Nc2nccc(N3C[C@H]4CC[C@@H](C3)N4C(=O)[C@@H]3CC3(F)F)n2)cc1Cl [Example 10, 3-chloro-5-({4-[(1R,5S)-8-{[(1S)-2,2-difluorocyclopropyl]carbonyl}-3,8-diazabicyclo[3.2.1]oct-3-yl]pyrimidin-2-yl}amino)-N-methylpyridine-2-carboxamide] | 439 | > 10000 | 22 | 367 | 171 | – |
| O=C([C@@H]1CC1(F)F)N1[C@@H]2CC[C@H]1CN(c1ccnc(Nc3cnc(CCO)c(Cl)c3)n1)C2 [Example 18, [(1R,5S)-3-(2-{[5-chloro-6-(2-hydroxyethyl)pyridin-3-yl]amino}pyrimidin-4-yl)-3,8-diazabicyclo[3.2.1]oct-8-yl][(1S)-2,2-difluorocyclopropyl]methanone] | 338 | > 10000 | 62 | 331 | 352 | – |
| O=C([C@@H]1CC1(F)F)N1[C@@H]2CC[C@H]1CN(c1ccnc(Nc3cnc(CCO)c(F)c3)n1)C2 [Example 19, [(1S)-2,2-difluorocyclopropyl][(1R,5S)-3-(2-{[5-fluoro-6-(2-hydroxyethyl)pyridin-3-yl]amino}pyrimidin-4-yl)-3,8-diazabicyclo[3.2.1]oct-8-yl]methanone] | 238 | > 10000 | 52 | 402 | 463 | – |
| O=C([C@@H]1CC1(F)F)N1[C@@H]2CC[C@H]1CN(c1ccnc(Nc3cnc(N4CC[C@H](O)C4)c(F)c3)n1)C2 [Example 20, [(1S)-2,2-difluorocyclopropyl]{(1R,5S)-3-[2-({5-fluoro-6-[(3S)-3-hydroxypyrrolidin-1-yl]pyridin-3-yl}amino)pyrimidin-4-yl]-3,8-diazabicyclo[3.2.1]oct-8-yl}methanone] | 458 | > 10000 | 58 | 346 | 314 | – |
| O=C([C@@H]1CC1(F)F)N1[C@@H]2CC[C@H]1CN(c1ccnc(Nc3cnc(N4CC(O)C4)c(F)c3)n1)C2 [Example 22, [(1S)-2,2-difluorocyclopropyl][(1R,5S)-3-(2-{[5-fluoro-6-(3-hydroxyazetidin-1-yl)pyridin-3-yl]amino}pyrimidin-4-yl)-3,8-diazabicyclo[3.2.1]oct-8-yl]methanone] | 410 | > 10000 | 55 | 312 | 490 | – |
| O=C([C@@H]1CC1(F)F)N1[C@@H]2CC[C@H]1CN(c1ccnc(Nc3cnc(CO)c(F)c3)n1)C2 [Example 25, [(1S)-2,2-difluorocyclopropyl][(1R,5S)-3-(2-{[5-fluoro-6-(hydroxymethyl)pyridin-3-yl]amino}pyrimidin-4-yl)-3,8-diazabicyclo[3.2.1]oct-8-yl]methanone] | 229 | > 10000 | 34 | 468 | 317 | – |
| CC(C)(C#N)c1ccc(Nc2nccc(N3C[C@H]4CC[C@@H](C3)N4C(=O)[C@@H]3CC3(F)F)n2)cn1 [Example 26, 2-[5-({4-[(1R,5S)-8-{[(1S)-2,2-difluorocyclopropyl]carbonyl}-3,8-diazabicyclo[3.2.1]oct-3-yl]pyrimidin-2-yl}amino)pyridin-2-yl]-2-methylpropanenitrile] | 247 | > 10000 | 25 | 192 | 60 | – |
| CNC(=O)c1ncc(Nc2nccc(N3C[C@H]4CC[C@@H](C3)N4C(=O)[C@@H]3C[C@H]3C#N)n2)cc1F [Example 27, 5-({4-[(1R,5S)-8-{[(1R,2R)-2-cyanocyclopropyl]carbonyl}-3,8-diazabicyclo[3.2.1]oct-3-yl]pyrimidin-2-yl}amino)-3-fluoro-N-methylpyridine-2-carboxamide] | 139 | > 10000 | 61 | 640 | 78 | – |
| CNC(=O)c1ncc(Nc2nccc(N3C[C@H]4CC[C@@H](C3)N4C(=O)[C@@H]3CC3(F)F)n2)cc1F [Example 29, 5-({4-[(1R,5S)-8-{[(1S)-2,2-difluorocyclopropyl]carbonyl}-3,8-diazabicyclo[3.2.1]oct-3-yl]pyrimidin-2-yl}amino)-3-fluoro-N-methylpyridine-2-carboxamide] | 118 | > 10000 | 31 | 487 | – | 131 |
| CNC(=O)c1ncc(Nc2nccc(N3C[C@H]4CC[C@@H](C3)N4C(=O)C3CC3)n2)cc1Cl [Example 30, 3-chloro-5-({4-[(1R,5S)-8-(cyclopropylcarbonyl)-3,8-diazabicyclo[3.2.1]oct-3-yl]pyrimidin-2-yl}amino)-N-methylpyridine-2-carboxamide] | 653 | > 10000 | 97 | 2130 | 1160 | – |
| CNC(=O)c1ncc(Nc2nccc(N3C[C@H]4CC[C@@H](C3)N4C(=O)[C@@H]3C[C@H]3C#N)n2)cc1Cl [Example 31, 3-chloro-5-({4-[(1R,5S)-8-{[(1R,2R)-2-cyanocyclopropyl]carbonyl}-3,8-diazabicyclo[3.2.1]oct-3-yl]pyrimidin-2-yl}amino)-N-methylpyridine-2-carboxamide] | 284 | > 10000 | 32 | 401 | 78 | – |
| Cn1cc(Nc2nccc(N3C[C@H]4CC[C@@H](C3)N4C(=O)C3(F)CC3)n2)cn1 [Example 46, (1-fluorocyclopropyl)[(1R,5S)-3-{2-[(1-methyl-1H-pyrazol-4-yl)amino]pyrimidin-4-yl}-3,8-diazabicyclo[3.2.1]oct-8-yl]methanone] | 209 | 4160 | 84 | 526 | 173 | – |
| O=C(C1CC1)N1[C@@H]2CC[C@H]1CN(c1ccnc(Nc3cn[nH]c3)n1)C2 [Example 49, cyclopropyl{(1R,5S)-3-[2-(1H-pyrazol-4-ylamino)pyrimidin-4-yl]-3,8-diazabicyclo[3.2.1]oct-8-yl}methanone] | 85 | > 10000 | 49 | 614 | 77 | – |
| CNC(=O)c1ncc(Nc2nccc(N3C[C@H]4CC[C@@H](C3)N4Cc3ccno3)n2)cc1C [Example 53, N,3-dimethyl-5-({4-[(1R,5S)-8-(1,2-oxazol-5-ylmethyl)-3,8-diazabicyclo[3.2.1]oct-3-yl]pyrimidin-2-yl}amino)pyridine-2-carboxamide] | 287 | > 10000 | 24 | 375 | 226 | – |
| Cn1cc(Nc2nccc(N3C[C@H]4CC[C@@H](C3)N4Cc3ccno3)n2)cn1 [Example 56, N-(1-methyl-1H-pyrazol-4-yl)-4-[(1R,5S)-8-(1,2-oxazol-5-ylmethyl)-3,8-diazabicyclo[3.2.1]oct-3-yl]pyrimidin-2-amine] | 78 | > 10000 | 41 | 394 | 110 | – |
| Cn1cc(Nc2nccc(N3C[C@H]4CC[C@@H](C3)N4Cc3nccs3)n2)cn1 [Example 57, N-(1-methyl-1H-pyrazol-4-yl)-4-[(1R,5S)-8-(1,3-thiazol-2-ylmethyl)-3,8-diazabicyclo[3.2.1]oct-3-yl]pyrimidin-2-amine] | 338 | > 10000 | 89 | 1070 | 294 | – |
| Cn1cc(Nc2nccc(N3C[C@H]4CC[C@@H](C3)N4C3CC(C#N)C3)n2)cn1 (stereo partly drawn) [Example 59, 3-[(1R,5S)-3-{2-[(1-methyl-1H-pyrazol-4-yl)amino]pyrimidin-4-yl}-3,8-diazabicyclo[3.2.1]oct-8-yl]cyclobutanecarbonitrile] | 84 | 8800 | 62 | 236 | 78 | – |
| Cn1cc(Nc2nccc(N3C[C@H]4CC[C@@H](C3)N4C3CN(S(C)(=O)=O)C3)n2)cn1 [Example 60, N-(1-methyl-1H-pyrazol-4-yl)-4-{(1R,5S)-8-[1-(methylsulfonyl)azetidin-3-yl]-3,8-diazabicyclo[3.2.1]oct-3-yl}pyrimidin-2-amine] | 103 | > 10000 | 70 | 159 | 36 | – |
| Cn1cc(Nc2nccc(N3C[C@H]4CC[C@@H](C3)N4C[C@@H]3CC3(F)F)n2)cn1 [Example 64, 4-[(1R,5S)-8-{[(1S)-2,2-difluorocyclopropyl]methyl}-3,8-diazabicyclo[3.2.1]oct-3-yl]-N-(1-methyl-1H-pyrazol-4-yl)pyrimidin-2-amine] | 71 | > 10000 | 41 | 320 | 95 | – |
| CCNC(=O)N1[C@@H]2CC[C@H]1CN(c1ccnc(Nc3cnsc3)n1)C2 [Example 74, (1R,5S)—N-ethyl-3-[2-(1,2-thiazol-4-ylamino)pyrimidin-4-yl]-3,8-diazabicyclo[3.2.1 l]octane-8-carboxamide] | 213 | > 10000 | 65 | 691 | 67 | – |

From patent US9663526B2, “Aminopyrimidinyl compounds” (Pfizer Inc., priority 2014, dated 2017)
